Experiment: In vitro dissolution test, microcentrifuge method, in phosphate buffered saline (PBS) pH 6.5
Type: physicochemical
Conditions: for AUC / Drug 2 Concentration: Table 5, PBS pH 6.5, 37° C.; for AUC: dose about 1000 μg/mL; for Drug 2 Concentration: Drug 2 dose about 1000 μg/mL
Protocol: The compositions comprising the CETP inhibitor and concentration-enhancing polymer provide enhanced concentration of the dissolved CETP inhibitor in in vitro dissolution tests. […] An appropriate PBS solution is an aqueous solution comprising 20 mM sodium phosphate (Na2HPO4), 47 mM potassium phosphate (KH2PO4), 87 mM NaCl, and 0.2 mM KCl, adjusted to pH 6.5 with NaOH. An appropriate MFD solution is the same PBS solution wherein additionally is present 7.3 mM sodium taurocholic acid and 1.4 mM of 1-palmitoyl-2-oleyl-sn-glycero-3-phosphocholine. In particular, a composition of the present invention can be dissolution-tested by adding it to MFD or PBS solution and agitating to promote dissolution.
Indeed, for some extremely insoluble CETP inhibitors, in order to identify the MDC achieved it may be necessary to use an amount of test composition such that if all of the CETP inhibitor dissolved, the CETP inhibitor concentration would be 10,000-fold or even more, that of the equilibrium concentration of the CETP inhibitor.
The MDC is taken to be the maximum value of dissolved CETP inhibitor measured over the duration of the test.
Filtration can be conducted using a 13 mm, 0.45 μm polyvinylidine difluoride syringe filter sold by Scientific Resources under the trademark TITAN®. Centrifugation is typically carried out in a polypropylene microcentrifuge tube by centrifuging at 13,000 G for 60 seconds. Other similar filtration or centrifugation methods can be employed and useful results obtained.
The spray-dried dispersions of Examples 6 and 7 were evaluated in an in vitro dissolution test using a microcentrifuge method. In this test, the spray-dried dispersion was added to a microcentrifuge tube for a Drug 2 dose of about 1000 μg/mL (7.2 mg for Example 6, 18 mg for Example 7). The tube was placed in a 37° C. sonicating bath, and 1.8 mL phosphate buffered saline (PBS) at pH 6.5 and 290 mOsm/kg was added. The samples were quickly mixed using a vortex mixer for about 60 seconds. The samples were centrifuged at 13,000 G at 37° C. for 1 minute. The resulting supernatant solution was then sampled and diluted 1:6 (by volume) with methanol and then analyzed by high-performance liquid chromatography (HPLC). The contents of the tubes were mixed on the vortex mixer and allowed to stand undisturbed at 37° C. until the next sample was taken. Samples were collected at 4, 10, 20, 40, 90, and 1200 minutes.
For Control 2, an in vitro dissolution test was performed using the procedures described above except that 1.8 mg of crystalline Drug 2 was used.
In this method, 7.2 mg of each spray-dried dispersion was added to a 2-mL microcentrifuge tube. The tube was placed in a 37° C. sonicating bath, and 1.8 mL of a phosphate-buffered saline (PBS) solution at pH 6.5 and 290 mOsm/kg was added, resulting in a TCmax of 400 μg/mL. The samples were quickly mixed using a combination of vortex mixer and sonication for about 90 seconds. The samples were centrifuged at 13,000 G at 37° C. for 1 minute. The resulting supernatant solution was then sampled and diluted 1:6 (by volume) with methanol and then analyzed by HPLC. The tubes were then mixed on the vortex mixer and allowed to stand undisturbed at 37° C. until the next sample. Samples were collected at 4, 10, 20, 40, 90 and 1200 minutes.
For Control 5, an in vitro dissolution test was performed using the procedure described above, except that 0.72 mg of non-crystalline Drug 3 was placed in a microcentrifuge tube and mixed with 1.8 mL of PBS.
In this method, 15 mg of each SDD was added to a 2-mL microcentrifuge tube. The tube was placed in a 37° C. sonicating bath, and 1.5 mL of a phosphate-buffered saline (PBS) solution at pH 6.5 and 290 mOsm/kg) was added, resulting in a TCmax of 1000 μg/mL. The samples were quickly mixed using a combination of vortex mixer and sonication for about 90 seconds.

[1] = Table 25: Drug 2, PBS, melt-congeal poloxamer dispersions
[2] = Table 28: Drug 2, PBS, spray-dried poloxamer dispersions
[3] = Table 37: Drug 2, PBS, CMEC dispersions

With `CCOC(=O)N1c2ccc(C(F)(F)F)cc2[C@@H](N(Cc2cc(C(F)(F)F)cc(C(F)(F)F)c2)C(=O)OC)C[C@H]1CC` [Control 2, [2R,4S]4-[(3,5-bis-trifluoromethyl-benzyl)-methoxycarbonyl-amino]-2-ethyl-6-trifluoromethyl-3,4-dihydro-2H-quinoline-1-carboxylic acid ethyl ester] the “actual Cmax,90 for Drug 2 in Control 2 (believed)” value (PBS, inferred from the accurately measured solubility of crystalline Drug 2) was “about 0.01 μg/ml”, the AUC (Drug 2, to 0 min) was 0 min-μg/mL and the AUC (Drug 2, to 4 min) was under 2 min-μg/mL. For the same compound, the AUC (Drug 2, to 10 min) was under 8 min-μg/mL, the AUC (Drug 2, to 20 min) was under 18 min-μg/mL and the AUC (Drug 2, to 40 min) was under 38 min-μg/mL. For the same compound, the AUC (Drug 2, to 90 min) was under 88 min-μg/mL, the AUC (Drug 2, to 1200 min) was <1,200 min-μg/mL and the “Drug 2 Concentration” value (0 min) was 0 µg/mL. For the same compound, the “Drug 2 Concentration” value (4 min) was under 1 µg/mL, the “Drug 2 Concentration” value (10 min) was under 1 µg/mL and the “Drug 2 Concentration” value (20 min) was under 1 µg/mL. For the same compound, the “Drug 2 Concentration” value (40 min) was under 1 µg/mL, the “Drug 2 Concentration” value (90 min) was under 1 µg/mL and the “Drug 2 Concentration” value (1200 min) was under 1 µg/mL. The AUC90 (Table 6, area under the aqueous concentration versus time curve after 90 minutes, Drug 2, PBS, TCmax about 1000 μg/mL) was under 88 min-μg/mL, the C1200 (Table 6, concentration of Drug 2 at 1200 minutes, PBS, TCmax about 1000 μg/mL) was under 1 µg/mL and the “Cmax, 90” value (Table 6, maximum concentration of Drug 2 in solution during the first 90 minutes, PBS, TCmax about 1000 μg/mL) was under 1000 ng/mL. For the same compound, the AUC90 [1] was under 1470 ng·h/mL, the “Cmax, 90” value [1] was under 1000 ng/mL and the AUC90 [2] was under 88 min-μg/mL. The “Cmax, 90” value [2] was under 1000 ng/mL, the AUC90 [3] was under 88 min-μg/mL and the “Cmax, 90” value [3] was under 1000 ng/mL. For the same compound, the AUC90 (Table 41: Drug 2, PBS) was under 88 min-μg/mL, the “Cmax, 90” value (Table 41: Drug 2, PBS) was under 1000 ng/mL and the AUC90 (Table 44: Drug 2, PBS) was under 88 min-μg/mL. For the same compound, the “Cmax, 90” value (Table 44: Drug 2, PBS) was under 1000 ng/mL.
